Measured values reported in patent publication US8133882B2, “Quinolone derivative or pharmaceutically acceptable salt thereof” (Astellas Pharma Inc, priority 2006, dated 2012).

Tests used:
[1] = tested on: human platelet aggregation (ADP-induced, platelet rich plasma); experiment: Human platelet aggregation inhibition activity measuring test (ADP-induced, PRP); format: cell-based; details: 10 μM final concentration of compound; human PRP 3×10^8 platelets/ml; ADP (50 μM, 10 μl) induced; area under platelet aggregation curve
Method: Test Method (1) Human Platelet Aggregation Inhibition Activity Measuring Test
A blood sample was collected from a healthy volunteers (adult) using a syringe containing 1/10th volume of 3.8% sodium citrate solution and centrifuged at 160×g for 10 minutes, thereby separating platelet rich plasma (PRP) of the supernatant. Remaining blood after the collection of PRP was centrifuged at 1,800×g for 10 minutes to separate platelet poor plasma (PPP). The number of platelets in the PRP was measured by an automatic blood cell counter (MEK-6258, Nihon Kohden Corp.), and then the number of platelets was adjusted to 3×10^8/ml by adding PPP to PRP and used in the following test. The ADP as an inducer of platelet aggregation was purchased from MC Medical. Platelet aggregation was measured using an aggregometer (MCM Hematracer 212; MC Medical). That is, 80 μl of PRP of 3×10^8 platelets/ml and 10 μl of a test compound solution or a solvent (10% DMSO or 10% DMSO-9% hydroxypropyl-β-cyclodextrin-4.5% d-mannitol) were incubated at 37° C. for 1 minute, and then 10 μl of ADP (50 μM) was added thereto to induce platelet aggregation, and changes in transmitted light were recorded for 5 minutes. The inhibition ratio was calculated using the area under platelet aggregation curve as an index.
In this connection, REx represents reference example number, and Ex Example compound number. In addition, Reference Examples 1 and 2 are the Example compounds described in the aforementioned Patent Reference 7, and were produced in accordance with the method described in said patent reference.

Human P2Y12 = target: T1, Human P2Y12 (Homo sapiens, UniProt Q9H244); experiment: Substitution test for the binding of human P2Y12 with 2-methylthio-ADP (2-MeS-ADP); details: 30 nM final concentration of compound; P2Y12 expression C6-15 cell membrane fraction; 0.75 nM [3H]- or [33P]-2-MeS-ADP
T1 construct: expressed in transfected cells; membrane fraction used
Method: Test Method (2) Substitution Test for the Binding of Human P2Y12 with 2-methylthio-ADP (2-MeS-ADP)
A C6-15 cell was inoculated into a 10 cm petri dish to a density of to 1×10^6 cells using DMEM medium and cultured for 1 day, and then 8 μg of a plasmid pEF-BOS-dfhr-human P2Y12 and 0.8 μg of pEF-BOS-neo (Nucleic Acid Res., 18, 5322, 1990) were gene-transferred using a transfection reagent (LipofectAMINE 2000; mfd. by GIBCO BRL).
24 hours after the aforementioned gene transfer operation, the gene-transferred cells were recovered, suspended in DMEM medium supplemented with 0.6 mg/ml of G 418 (mfd. by GIBCO BRL) and then serially diluted and inoculated again in a 10 cm petri dish. The colonies appeared after 2 weeks were individually obtained and used in the following test as P2Y12 protein expression C6-15 cells (WO 02/36631, Mol. Pharmacol., 60, 432, 2001).
After culturing the P2Y12 protein expression C6-15 cells, the cells were recovered. […]
A 100 μl portion of the P2Y12 protein expression C6-15 cell membrane fraction (100 μg/ml) obtained in the above was mixed with 1.5 μl of a test compound solution and 50 μl of 0.75 nM [^3H]-2-MeS-ADP (80 Ci/mmol, mfd. by Amersham Pharmacia Biotech) or 0.75 nM [^33P]-2-MeS-ADP (2100 Ci/mmol, mfd. by Perkin Elmer), incubated at room temperature for 1 hour in 50 mM Tris-HCl (pH 7.4) containing 100 mM NaCl and 50 mM MgCl2, and then recovered on a glass filter using a cell harvester. A microscintillator was added to the glass filter, and the radioactivity was measured using a liquid scintillation counter. Those to which the solvent alone was added and 1.5 μl of 250 μM ADP was added in the aforementioned test at the same time were regarded as total binding and nonspecific binding, and their radioactivity was measured. By regarding the total binding and nonspecific binding as inhibition ratio 0% and 100% respectively, inhibition ratio (%) of each compound to be tested was calculated.

[2] = tested on: rat platelet aggregation (ADP-induced, PRP); experiment: Rat platelet aggregation inhibition test (oral administration, ex vivo ADP-induced aggregation); format: in vivo; details: dose 30 mg/kg oral, male SD rat, blood collected 2 hours after administration
Method: Test Method (3) Rat Platelet Aggregation Inhibition Test and Measurement of Test Compound Concentration in Plasma
By adding sodium hydroxide aqueous solution to the compound of the present invention, 0.5% methyl cellulose aqueous solution or suspension was prepared. The thus prepared liquid was orally administered using a sonde to a male SD rat (5 to 7 weeks of age) of after 12 hours or more of fasting. After 2 hours of the compound administration, blood was collected using a syringe containing 1/10th volume of 3.8% sodium citrate solution. In the same manner as in Test method (1), PPP and PRP of 3×10^8 platelets/ml were prepared. A 90 μl portion of the PRP of 3×10^8 platelets/ml was incubated at 37° C. for 1 minute, and then 10 μl of ADP (50 μM) was added thereto to induce platelet aggregation, and changes in transmitted light were recorded for 5 minutes. The inhibition ratio was calculated using the area under platelet aggregation curve as an index.

T1 sequence (Q9H244 whole entry): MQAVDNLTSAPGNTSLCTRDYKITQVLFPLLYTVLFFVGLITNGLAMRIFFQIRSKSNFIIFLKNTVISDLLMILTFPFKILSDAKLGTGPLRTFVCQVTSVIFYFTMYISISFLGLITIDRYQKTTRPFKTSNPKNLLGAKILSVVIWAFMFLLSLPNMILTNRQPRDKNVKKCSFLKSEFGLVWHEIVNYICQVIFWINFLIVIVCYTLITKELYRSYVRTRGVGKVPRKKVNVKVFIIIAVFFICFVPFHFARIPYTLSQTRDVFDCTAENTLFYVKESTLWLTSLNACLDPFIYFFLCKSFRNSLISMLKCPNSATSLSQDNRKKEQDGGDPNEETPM

Compound | inhibition at 10 µM [1] [%] | inhibition at 0.03 µM (Human P2Y12) [%] | inhibition at 30 mg/kg [2] [%]
O=C(O)CCC(=O)Nc1cn(C2CCCC2)c2cc(NC3CCCCC3)c(F)cc2c1=O [Ex 2, 4-{[7-(cyclohexylamino)-1-cyclopentyl-6-fluoro-4-oxo-1,4-dihydroquinolin-3-yl]amino}-4-oxobutanoic acid] | 93 | 89 | –
O=C(O)CCCNC(=O)c1cn(C2CCCC2)c2cc(NC3CCCCC3)c(F)cc2c1=O [REx 1, 4-({[7-(cyclohexylamino)-1-cyclopentyl-6-fluoro-4-oxo-1,4-dihydroquinolin-3-yl]carbonyl}amino)butanoic Acid] | 64 | 76 | 11
O=C(O)CNC(=O)c1cn(C2CCCC2)c2cc(NC3CCCCC3)c(F)cc2c1=O [REx 2, ({[7-(cyclohexylamino)-1-cyclopentyl-6-fluoro-4-oxo-1,4-dihydroquinolin-3-yl]carbonyl}amino)acetic Acid] | 79 | 86 | -7
